Each compound was assayed on HeLa cells (assay: Proliferation assay, crystal violet staining). Settings: Homo sapiens, 96 h, read-out: Inhibition of HeLa cell proliferation.
Description: After 24 hours, the cells of one plate (zero plate) were dyed with crystal violet (see below), whereas the medium of the other plates was replaced with fresh culture medium (200 μl) to which the test substances were added in various concentrations (0 μM, and also in the range of 0.001-10 μM; the final concentration of the solvent dimethyl sulphoxide was 0.1 or 0.5%). The cells were incubated for 4 days in the presence of the test substances. […] After washing the fixed cells three times with water, the plates were dried at room temperature. The cells were stained by adding 100 μl/measurement point of a 0.1% strength crystal violet solution (pH adjusted to pH 3 by adding acetic acid). After washing the cells three times with water, the plates were dried at room temperature. The dye was dissolved by adding 100 μl/measurement point of a 10% strength acetic acid solution. […] The percentage change in cell growth was calculated by normalizing the measured values to the absorbance values of the zero plate (=0%) and the absorbance of the untreated (0 W) cells (=100%). The IC50 values were determined by means of a four parameter fit.

SMILES | IC50
COP(=O)(OC)c1ccc(-c2cc(N3CCOCC3)nc3c(-c4ccn[nH]4)nccc23)cc1 [Example 9, dimethyl {4-[2-(morpholin-4-yl)-8-(1H-pyrazol-5-yl)-1,7-naphthyridin-4-yl]phenyl}phosphonate] | 1010 nM

Same assay, conditions: Homo sapiens, 96 h, read-out: Inhibition of HeLa cell proliferation, HeLa cells, 4 days incubation

IC50 | SMILES
> 3000 nM | C[C@@H]1CN[C@@H](C)CN1c1cc(N2CCOCC2)nc2c(-c3ccn[nH]3)nccc12 (relative stereo) [Example 178, 4-[(trans)-2,5-dimethylpiperazin-1-yl]-2-(morpholin-4-yl)-8-(1H-pyrazol-5-yl)-1,7-naphthyridine]
2770 nM | CS(=O)(=O)c1ccc(-c2cc(N3CCOCC3)nc3c(-c4ccn[nH]4)nccc23)cn1 [Example 3, 4-[6-(methylsulfonyl)pyridin-3-yl]-2-(morpholin-4-yl)-8-(1H-pyrazol-5-yl)-1,7-naphthyridine]
1490 nM | Cc1cc(S(C)(=O)=O)ncc1-c1cc(N2CCOCC2)nc2c(-c3ccn[nH]3)nccc12 [Example 6, 4-[4-methyl-6-(methylsulfonyl)pyridin-3-yl]-2-(morpholin-4-yl)-8-(1H-pyrazol-5-yl)-1,7-naphthyridine]
355 nM | C[C@@H]1COCCN1c1cc(-c2ccccc2)c2ccnc(-c3cc[nH]n3)c2n1 [Example 27, 2-((R)-3-methylmorpholin-4-yl)-4-phenyl-8-(2H-pyrazol-3-yl)-[1,7]naphthyridine]
316 nM | C[C@@H]1COCCN1c1cc(-c2cccc(S(C)(=O)=O)c2)c2ccnc(-c3cc[nH]n3)c2n1 [Example 28, 4-(3-methanesulphonylphenyl)-2-((R)-3-methylmorpholin-4-yl)-8-(2H-pyrazol-3-yl)-[1,7]naphthyridine]
5080 nM | CS(=O)(=O)Cc1cc(N2CCOCC2)nc2c(-c3ccn[nH]3)nccc12 [Example 37, 4-methanesulphonylmethyl-2-morpholin-4-yl-8-(2H-pyrazol-3-yl)-[1,7]naphthyridine]
3880 nM | CCOc1cc(N2CCOCC2)nc2c(-c3cc[nH]n3)nccc12 [Example 43, 4-ethoxy-2-(morpholin-4-yl)-8-(1H-pyrazol-3-yl)-[1,7]naphthyridine]
> 10000 nM | c1ccc(COc2cc(N3CCOCC3)nc3c(-c4cc[nH]n4)nccc23)cc1 [Example 50, 4-benzyloxy-2-(morpholin-4-yl)-8-(1H-pyrazol-3-yl)-[1,7]naphthyridine]
1410 nM | COc1cc(N2CCOC[C@H]2C)nc2c(-c3cc[nH]n3)nccc12 [Example 53, 4-methoxy-2-((R)-3-methylmorpholin-4-yl)-8-(1H-pyrazol-3-yl)-[1,7]naphthyridine]
191 nM | CCn1nccc1-c1cc(N2CCOC[C@H]2C)nc2c(-c3ccn[nH]3)nccc12 [Example 69, 4-(1-ethyl-1H-pyrazol-5-yl)-2-[(3R)-3-methylmorpholin-4-yl]-8-(1H-pyrazol-5-yl)-1,7-naphthyridine]
201 nM | C[C@@H]1COCCN1c1cc(-c2cncn2C)c2ccnc(-c3ccn[nH]3)c2n1 [Example 70, 4-(1-methyl-1H-imidazol-5-yl)-2-[(3R)-3-methylmorpholin-4-yl]-8-(1H-pyrazol-5-yl)-1,7-naphthyridine]
167 nM | C[C@@H]1COCCN1c1cc(-c2ccccc2N)c2ccnc(-c3ccn[nH]3)c2n1 [Example 71, 2-{2-[(3R)-3-methylmorpholin-4-yl]-8-(1H-pyrazol-5-yl)-1,7-naphthyridin-4-yl]aniline]
200 nM | C[C@@H]1COCCN1c1cc(-c2cccc(F)c2F)c2ccnc(-c3ccn[nH]3)c2n1 [Example 72, 4-(2,3-difluorophenyl)-2-[(3R)-3-methylmorpholin-4-yl]-8-(1H-pyrazol-5-yl)-1,7-naphthyridine]
271 nM | C[C@@H]1COCCN1c1cc(-c2cc(F)ccc2N)c2ccnc(-c3ccn[nH]3)c2n1 [Example 75, 4-fluoro-2-[2-[(3R)-3-methylmorpholin-4-yl]-8-(1H-pyrazol-5-yl)-1,7-naphthyridin-4-yl]aniline]
968 nM | C[C@@H]1COCCN1c1cc(-c2cncn2Cc2ccccc2)c2ccnc(-c3ccn[nH]3)c2n1 [Example 76, 4-(1-benzyl-1H-imidazol-5-yl)-2-[(3R)-3-methylmorpholin-4-yl]-8-(1H-pyrazol-5-yl)-1,7-naphthyridine]
254 nM | C[C@@H]1COCCN1c1cc(-c2ccccc2F)c2ccnc(-c3ccn[nH]3)c2n1 [Example 77, 4-(2-fluorophenyl)-2-[(3R)-3-methylmorpholin-4-yl]-8-(1H-pyrazol-5-yl)-1,7-naphthyridine]
655 nM | Cc1ncc(-c2cc(N3CCOC[C@H]3C)nc3c(-c4ccn[nH]4)nccc23)s1 [Example 78, 2-[(3R)-3-methylmorpholin-4-yl]-4-(2-methyl-1,3-thiazol-5-yl)-8-(1H-pyrazol-5-yl)-1,7-naphthyridine]
187 nM | C[C@@H]1COCCN1c1cc(-c2ccnn2C2CC2)c2ccnc(-c3ccn[nH]3)c2n1 [Example 80, 4-(1-cyclopropyl-1H-pyrazol-5-yl)-2-[(3R)-3-methylmorpholin-4-yl]-8-(1H-pyrazol-5-yl)-1,7-naphthyridine]
245 nM | C[C@@H]1COCCN1c1cc(-c2ccc(N3CCNCC3)cc2F)c2ccnc(-c3ccn[nH]3)c2n1 [Example 81, 4-[2-fluoro-4-(piperazin-1-yl)phenyl]-2-[(3R)-3-methylmorpholin-4-yl]-8-(1H-pyrazol-5-yl)-1,7-naphthyridine]
529 nM | C[C@@H]1COCCN1c1cc(N2CCN(S(C)(=O)=O)CC2)c2ccnc(-c3ccn[nH]3)c2n1 [Example 82, 2-[(3R)-3-methylmorpholin-4-yl]-4-[4-(methylsulfonyl)piperazin-1-yl]-8-(1H-pyrazol-5-yl)-1,7-naphthyridine]
331 nM | C[C@@H]1COCCN1c1cc(N(C)CC(C)(C)C)c2ccnc(-c3ccn[nH]3)c2n1 [Example 83, N-(2,2-dimethylpropyl)-N-methyl-2-[(3R)-3-methylmorpholin-4-yl]-8-(1H-pyrazol-5-yl)-1,7-naphthyridin-4-amine]
130 nM | C[C@@H]1COCCN1c1cc(N2CCC(CO)CC2)c2ccnc(-c3ccn[nH]3)c2n1 [Example 84, (1-{2-[(3R)-3-methylmorpholin-4-yl]-8-(1H-pyrazol-5-yl)-1,7-naphthyridin-4-yl}piperidin-4-yl)methanol]
438 nM | C[C@@H]1COCCN1c1cc(N(C)C2CC2)c2ccnc(-c3ccn[nH]3)c2n1 [Example 85, N-cyclopropyl-N-methyl-2-[(3R)-3-methylmorpholin-4-yl]-8-(1H-pyrazol-5-yl)-1,7-naphthyridin-4-amine]
543 nM | C[C@@H]1COCCN1c1cc(N(C)c2ccc(F)cc2)c2ccnc(-c3ccn[nH]3)c2n1 [Example 87, N-(4-fluorophenyl)-N-methyl-2-[(3R)-3-methylmorpholin-4-yl]-8-(1H-pyrazol-5-yl)-1,7-naphthyridin-4-amine]
142 nM | C[C@@H]1COCCN1c1cc(-c2cccnc2F)c2ccnc(-c3ccn[nH]3)c2n1 [Example 89, 4-(2-fluoropyridin-3-yl)-2-[(3R)-3-methylmorpholin-4-yl]-8-(1H-pyrazol-5-yl)-1,7-naphthyridine]

SMILES | IC50
CN1CC=C(c2cc(N3CCOCC3)nc3c(-c4ccn[nH]4)nccc23)CC1 [Example 14, 4-(1-methyl-1,2,3,6-tetrahydropyridin-4-yl)-2-(morpholin-4-yl)-8-(1H-pyrazol-5-yl)-1,7-naphthyridine] | 1990 nM

Reference: patent publication US10772893B2, “2-(morpholin-4-yl)-1,7-naphthyridines” (BAYER PHARMA AKTIENGESELLSCHAFT, priority 2014, dated 2020)
